Patent US20090305994A1, “Compounds Modulating Vegf Receptor and Uses Thereof” (priority 2005, published 2009)

Legend:
Type in all cases: cell-based, bovine
Flt-1 = molecular target: T1, Flt-1 (Bos taurus, UniProt F1MDD9); test: Flt-1 activation (immunoprecipitation, phospho-tyrosine western blot) in BAEC; conditions: 15 minutes of exposure
T1 construct: we immunoprecipitated total KDR and Flt-1 from BAEC whole extracts; endogenous in cells; host or cells: BAEC (bovine aorta endothelial cells, SV40-immortalized)
T1 sequence (F1MDD9 1-1251): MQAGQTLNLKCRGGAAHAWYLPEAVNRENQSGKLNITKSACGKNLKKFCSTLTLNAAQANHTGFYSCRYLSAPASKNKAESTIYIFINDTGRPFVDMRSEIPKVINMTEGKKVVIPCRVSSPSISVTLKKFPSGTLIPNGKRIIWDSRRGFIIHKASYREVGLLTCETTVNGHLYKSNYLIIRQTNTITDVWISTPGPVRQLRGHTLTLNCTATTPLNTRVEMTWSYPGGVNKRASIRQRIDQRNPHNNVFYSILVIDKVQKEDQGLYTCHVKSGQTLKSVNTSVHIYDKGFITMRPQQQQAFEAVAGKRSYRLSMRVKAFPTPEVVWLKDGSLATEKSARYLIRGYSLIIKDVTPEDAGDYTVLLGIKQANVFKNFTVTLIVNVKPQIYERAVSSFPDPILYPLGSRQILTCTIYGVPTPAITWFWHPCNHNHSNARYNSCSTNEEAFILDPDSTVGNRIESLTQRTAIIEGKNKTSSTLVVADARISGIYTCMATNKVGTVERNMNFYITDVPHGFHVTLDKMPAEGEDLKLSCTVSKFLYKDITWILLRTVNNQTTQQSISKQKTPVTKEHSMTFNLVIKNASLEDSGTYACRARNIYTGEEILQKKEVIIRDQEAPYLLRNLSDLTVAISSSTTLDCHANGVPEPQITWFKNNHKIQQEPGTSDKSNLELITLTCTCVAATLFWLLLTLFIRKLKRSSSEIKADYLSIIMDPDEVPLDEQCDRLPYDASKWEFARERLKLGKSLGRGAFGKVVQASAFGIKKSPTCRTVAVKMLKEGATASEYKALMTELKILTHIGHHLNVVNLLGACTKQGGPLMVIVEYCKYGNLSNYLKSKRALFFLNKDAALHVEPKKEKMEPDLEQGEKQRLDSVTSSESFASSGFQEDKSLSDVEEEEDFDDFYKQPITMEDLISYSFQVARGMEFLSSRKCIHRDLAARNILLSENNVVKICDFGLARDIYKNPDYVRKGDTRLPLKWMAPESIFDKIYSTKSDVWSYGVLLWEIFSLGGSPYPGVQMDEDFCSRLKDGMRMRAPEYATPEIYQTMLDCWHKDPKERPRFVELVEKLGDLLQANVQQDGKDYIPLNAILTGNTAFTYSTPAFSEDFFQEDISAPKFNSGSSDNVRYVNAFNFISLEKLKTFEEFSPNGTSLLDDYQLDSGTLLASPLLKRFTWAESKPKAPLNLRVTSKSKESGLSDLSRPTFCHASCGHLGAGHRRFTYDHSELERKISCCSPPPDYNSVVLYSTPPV
Method: VEGF receptors binding and activation. a) VEGF competitive binding on BAEC. 1 μg of membrane protein was plated with QK and [^125I]-VEGF (500000 cpm, 10^−10 M). b) KDR activation. After stimulation total KDR was immunoprecipitated from a whole-cell protein extracts and phospho-tyrosine was visualized by a specific antibody, anti-rabbit HRP-conjugated secondary antibody and standard chemiluminescence. c) Flt-1 activation. After stimulation total Flt-1 was immunoprecipitated from a whole-cell protein extracts and phospho-tyrosine was visualized by specific antibody, anti-rabbit HRP-conjugated secondary antibody and standard chemiluminescence.
Western blot. Cells were plated on six-well dishes and serum starved overnight. On the next day, cells were treated with different amount of peptide in absence or in presence of VEGF165 for 15 minutes at 37° C. and then dissolved in RIPA-SDS buffer (50 mM Tris-HCl (pH 7.5), 150 mM NaCl, 1% NP-40, 0.25% deoxycholate, 9.4 mg/50 ml sodium orthovanadate, […]). In some experiments, total KDR and Flt-1 were immunoprecipitated from an equal amount of whole-cell protein extracts using protein A/G agarose beads conjugated with antibodies raised against total KDR or Flt-1 (R&D). Proteins from whole-cell extracts or immunocomplexes were resolved by PAGE and transferred to nitrocellulose. […]

RB = RB phosphorylation (western blot); conditions: 12 and 18 hours; QK 10^-6 M, VEGF165 100 ng/ml, VEGF 15 10^-6 M
Method: (§1) Effect of QK on cell proliferation. a) DNA synthesis. BAEC were incubated in DMEM with [^3H]-thymidine and QK in absence or in presence of VEGF165 (100 ng/ml). After 24 hours cells were fixed and lysed. Scintillation liquid was added and [^3H]-thymidine incorporation was evaluated. b) Cell proliferation. BAEC were stimulated with the indicated amount of QK in absence or in presence of VEGF165 (100 ng/ml). Cell number was determined at 24 hours after stimulation. c) RB phosphorylation. p-RB was evaluated at 12 and 18 hours after stimulation with QK (10^-6M), VEGF165 (100 ng/ml) and VEGF 15 (10^−6 M).
Cells proliferation assay. Cells were seeded at a density of 10000 per well in six well plates, serum starved overnight and then stimulated with QK (10-12 to 10^−6 M) in absence or in presence of VEGF165. Cell number was determined at 24 hours after stimulation. The p-RB, was evaluated by western blot 12 and 18 hours after stimulation with QK (10^−6 M), VEGF165 and VEGF 15 (10^−6 M).

BAEC = test: [3H]-thymidine incorporation (DNA synthesis); conditions: 24 hours
Method: as §1
[^3H]-thymidine incorporation. Cells were serum starved for 24 hours and then incubated in DMEM with [^3H]-thymidine (Amersham) and QK alone (10^−12-10^−6 M) or with a combination of QK and VEGF165. After 24 hours cells were fixed with trichloracetic acid ([…]) and dissolved in NaOH 1M. Scintillation liquid was added and thymidine incorporation was evaluated with a beta counter.

For KLTWQELYQLKYKGI [QK], the Flt-1 phosphorylation (Flt-1) was “increased the levels of phosphorylation of Flt-1”, the “phosphorylation of the cyclin RB” value (RB) was “enhanced phosphorylation of the cyclin RB” and the “DNA synthesis ([3H]-thymidine incorporation)” value (BAEC; peptide alone) was “increased DNA synthesis at any dosages”. For the same sequence, the “DNA synthesis in presence of VEGF” value (BAEC; with VEGF165 100 ng/ml) was “the effect was enhanced in presence of VEGF”.
